# Data published in publication PMC12503909, “C1′‐Branched Acyclic Nucleoside Phosphonates as Inhibitors of Plasmodium Falciparum 6‐Oxopurine Phosphoribosyltransferase” (Chemmedchem, 2025).
# Legend:
# P. falciparum D6 = assay: In vitro antimalarial activity, 3H-hypoxanthine growth inhibition assay, D6 line; assay type: cell-based, Plasmodium falciparum; conditions: 96 h, Pf infected erythrocytes, D6 strain sensitive to chloroquine, mean ± SD of three independent experiments
# Procedure: (§1) The IC50 values were determined as previously described.^[ [32] ^] P. falciparum D6 (Sierra‐Leone) laboratory line, sensitive to most antimalarial drugs, and W2 (Indochina) line, resistant to chloroquine and pyrimethamine, were maintained as previously described^[ [33] ^] in medium consisted of 10.4 g L^−1 RPMI‐1640‐LPLF powder (Gibco BRL), 5.97 g L^−1 HEPES buffer (MP Biomedicals, USA), 2.0 g L^−1 d‐glucose (BDH chemicals, Australia), 0.05 g L^−1 hypoxanthine (Sigma, USA) and 40 mg L^−1 gentamycin (Pfizer, Australia), supplemented with 0.21% NaHCO3 and 10% human plasma prior to use. Red blood cells O (Rh+) type were obtained from the Australian Red Cross Blood Service and added to 4% haematocrit. Cultures were routinely synchronized using D‐sorbitol.^[ [34] ^] To evaluate the antimalarial activity of the ANPs, the ^3H‐hypoxanthine growth inhibition assay was utilized, where the uptake of ^3H‐hypoxanthine by malaria parasites is used as a surrogate marker for parasite growth. For these assays, stock solutions of the tested compounds were made to concentrations of 20–40 mM in DMSO or water and subsequently diluted in hypoxanthine‐free complete media prior to assay. The assays (in 96‐well plate format) were initiated when most parasites (> 90%) were at the early trophozoite (ring) stage. Parasite cultures (100 μL per well) at 0.5% initial parasitemia and 2% hematocrit in hypoxanthine‐free RPMI1640‐LPLF medium were exposed to ten twofold serial dilutions of the compounds and chloroquine (reference drug) for 96 h, with ^3H‐hypoxanthine (0.2 μCi well^−1) added ≈48 h after the beginning of the experiment.
# (§2) The ^3H‐hypoxanthine incorporation data were analyzed, and sigmoidal growth inhibition curves were produced by nonlinear regression analysis of the ^3H‐hypoxanthine incorporation data versus log‐transformed concentrations of the compounds using Graphpad Prism V5.0 software (GraphPad Software Inc. USA). […] The IC50 values were based on three independent experiments, with mean ± SD calculated.
# P. falciparum W2 = assay: In vitro antimalarial activity, 3H-hypoxanthine growth inhibition assay, W2 line; assay type: cell-based, Plasmodium falciparum; conditions: 96 h, Pf infected erythrocytes, W2 strain resistant to chloroquine, mean ± SD of three independent experiments
# Procedure: as §1, §2
# HL-60 = assay: Cytotoxicity of the prodrug in human cells (CellTiter-Glo 2.0), HL-60; assay type: cell-based; conditions: 10 µM, versus untreated control; mean ± SD
# Procedure: (§3) Compound cytotoxicity was evaluated in nontumor human dermal fibroblasts (NHDF), CCRF‐CEM, HL‐60, HeLa, and HepG2 cells. All cell lines were obtained from ATCC (Manassas, VA, USA). The cytotoxicity was assayed using CellTiter‐Glo 2.0 detection reagent (Promega, Madison, USA) according to the manufacturer's protocol. The concentration of prodrug used in this assay was 10 μM. This concentration was chosen as it would more accurately reflect the expected concentration in an in vitro assessment.
# CCRF-CEM = assay: Cytotoxicity of the prodrug in human cells (CellTiter-Glo 2.0), CCRF-CEM; assay type: cell-based; conditions: 10 µM, versus untreated control; mean ± SD
# Procedure: as §3
# HeLa = assay: Cytotoxicity of the prodrug in human cells (CellTiter-Glo 2.0), HeLa; assay type: cell-based; conditions: 10 µM, versus untreated control; mean ± SD
# Procedure: as §3
# HepG2 = assay: Cytotoxicity of the prodrug in human cells (CellTiter-Glo 2.0), HepG2; assay type: cell-based; conditions: 10 µM, versus untreated control; mean ± SD
# Procedure: as §3
# NHDF = assay: Cytotoxicity of the prodrug in human cells (CellTiter-Glo 2.0), NHDF; assay type: cell-based; conditions: 10 µM, versus untreated control; mean ± SD
# Procedure: as §3
# [1] = Plasmodium falciparum, D6, Erythrocyte
# [2] = Plasmodium falciparum, W2, Erythrocyte
SMILES,IC50 (P. falciparum D6; [1]),IC50 (P. falciparum W2; [2]),Viability HL-60 (HL-60),Viability CCRF-CEM (CCRF-CEM),Viability HeLa (HeLa),Viability HepG2 (HepG2),Viability NHDF (NHDF),IC50 (P. falciparum D6),IC50 (P. falciparum W2)
"CCOC(=O)[C@H](Cc1ccccc1)NP(=O)(CCOCC(OCCO)n1cnc2c(=O)[nH]cnc21)N[C@@H](Cc1ccccc1)C(=O)OCC (some centres unmarked) [21c, Bis‐(L‐phenylalaninate ethyl ester) prodrug of (2‐(2‐(2‐hydroxyethoxy)‐2‐(hypoxanthin‐9‐yl)ethoxy)ethyl) phosphonic acid]",41 ± 5 µM,14 ± 2 µM,104 ± 2 % control,100 ± 2 % control,97 ± 2 % control,97 ± 2 % control,102 ± 6 % control,,
"CCOC(=O)[C@H](Cc1ccccc1)NP(=O)(CCOCC(OCCOCP(=O)(N[C@@H](Cc1ccccc1)C(=O)OCC)N[C@@H](Cc1ccccc1)C(=O)OCC)n1cnc2c(=O)[nH]cnc21)N[C@@H](Cc1ccccc1)C(=O)OCC (some centres unmarked) [19a, Tetra‐(L‐phenylalaninate ethyl ester) prodrug of (2‐(2‐(hypoxanthin‐9‐yl)‐2‐(2‐(phosphonatomethoxy)ethoxy)ethoxy)ethyl)phosphonic acid]",2 µM,3 µM,112 ± 1 % control,106 ± 1 % control,105 ± 1 % control,116 ± 1 % control,114 ± 5 % control,2.1 ± 0.2 µM,3.4 ± 1.1 µM
"CCOC(=O)[C@H](Cc1ccccc1)NP(=O)(COCCC(OCCCO)n1cnc2c(=O)[nH]c(N)nc21)N[C@@H](Cc1ccccc1)C(=O)OCC (some centres unmarked) [21f, Bis‐(L‐phenylalaninate ethyl ester) prodrug of ((3‐(3‐hydroxypropoxy)‐3‐(guanin‐9‐yl)propoxy)methyl) phosphonic acid]",13 ± 2 µM,26 ± 14 µM,105 ± 2 % control,103 ± 1 % control,106 ± 1 % control,110 ± 2 % control,116 ± 4 % control,,
